# Test results reported in US12559529B2, “NPY2 receptor agonists” (Boehringer Ingelheim International GmbH, priority 2019, dated 2026).
# *1 amine or outer side, *2 acyl side, *3 side chain or, on linkers, in order; H or OH if unused. Where a SMILES comes first, the peptide text is derived from it. Side-chain parts run from the residue outwards. The star is where a group is joined. C18 diacid = O=C(O)CCCCCCCCCCCCCCCCC(=O)*; γGlu = O=C(O)[C@H](CCC(=O)[*:2])N[*:1]; Isovaleryl = CC(C)CC(=O)*; AEEA = NCCOCCOCC(=O)O
# Biological target: T1, Human Neuropeptide Y2 Receptor (Homo sapiens, UniProt P49146)
# T1 construct: purchased CHEMICON HTS066M
# T1 sequence (P49146 1-381): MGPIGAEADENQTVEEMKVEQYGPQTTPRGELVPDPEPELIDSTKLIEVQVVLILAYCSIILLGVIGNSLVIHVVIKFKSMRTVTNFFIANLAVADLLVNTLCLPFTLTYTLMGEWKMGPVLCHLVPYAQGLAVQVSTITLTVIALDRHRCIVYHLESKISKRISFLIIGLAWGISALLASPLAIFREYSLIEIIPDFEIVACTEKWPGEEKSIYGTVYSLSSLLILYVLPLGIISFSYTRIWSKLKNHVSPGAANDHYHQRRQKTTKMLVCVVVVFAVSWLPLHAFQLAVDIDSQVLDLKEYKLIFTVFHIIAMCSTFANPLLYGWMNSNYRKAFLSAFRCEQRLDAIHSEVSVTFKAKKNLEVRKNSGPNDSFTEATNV
# Test: Radioligand binding competition assay (RLB)
# Settings: Table 3; human 125I-PYY (1-36) 0.02 nM, Y2 receptor membranes; read-out: Ki
# Experimental: The filtration RLB assay was carried out in 96-well plates in a final volume of 100 μl per well. Freeze-dried test peptides were dissolved in 100% dimethyl sulfoxide (DMSO) to stock solutions of 1 mM and serial dilutions were performed in assay buffer (50 mM HEPES, 5 mM MgCl2, 1 mM CaCl2), pH 7.4) containing 0.2% ovalbumin. […] Next, 80 μL membranes (HTS066M, ChemiSCREEN™ Human Neuropeptide Y2 Receptor Membrane Preparation, CHEMICON) were added to each well to give a final protein concentration of 0.5 μg/well. The plates were sealed and incubated at room temperature for 2 hours in a plate shaker set at 400 rpm. The incubation was stopped by vacuum filtration onto 0.5% poly-ethylene amine (PEI) presoaked GF/C filters using a 96-well FilterMate™ harvester (Perkin Elmer) followed by four washes with 300 μl/well ice-cold wash buffer (50 mM HEPES, 500 mM NaCl, pH7.4). Filter plates were then dried for 60 min at room temperature and the bottom of the plates was sealed with backing tape UniFilter-96. Finally, 50 μl/well scintillation counter cocktail (Microscint20, Packard) was added and the radioactivity was counted in the Packard TopCount NXT scintillation counter. IC50 values (the half maximal inhibitory concentration of the agonist) were calculated by nonlinear regression analysis of sigmoidal dose-response curves.
row,SMILES,Ki [nM]
1,"CC(C)CC(=O)N[C@@H](C)C(=O)N1CCC[C@H]1C(=O)N[C@@H](CCC(=O)O)C(=O)N[C@@H](CCCCNC(=O)COCCOCCNC(=O)COCCOCCNC(=O)CC[C@H](NC(=O)CCCCCCCCCCCCCCCCC(=O)O)C(=O)O)C(=O)N1CCC[C@H]1C(=O)N[C@@H](CCC(=O)O)C(=O)N[C@@H](CCC(=O)O)C(=O)N[C@@H](CC(=O)O)C(=O)N[C@@H](C)C(=O)N[C@@H](C)C(=O)N1CCC[C@H]1C(=O)N[C@@H](CCC(=O)O)C(=O)N[C@@H](CCC(=O)O)C(=O)N[C@@H](CC(C)C)C(=O)N[C@@H](CCC(N)=O)C(=O)N[C@@H](CCC(N)=O)C(=O)N[C@@H](Cc1ccc(O)cc1)C(=O)N[C@@H](Cc1ccc(O)cc1)C(=O)N[C@H](C(=O)N[C@@H](CO)C(=O)N[C@@H](CC(C)C)C(=O)N[C@@H](CCCNC(=N)N)C(=O)N[C@@H](Cc1c[nH]cn1)C(=O)N[C@@H](Cc1ccc(O)cc1)C(=O)N[C@@H](Cc1ccc(O)cc1)C(=O)N[C@@H](CC(N)=O)C(=O)N[C@@H](Cc1c[nH]c2ccccc12)C(=O)N[C@@H](CC(C)C)C(=O)N[C@H](C(=O)N[C@@H](CCCNC(=N)N)C(=O)N[C@@H](CCC(N)=O)C(=O)N[C@@H](CCCNC(=N)N)C(=O)N[C@@H](Cc1ccc(O)cc1)C(N)=O)[C@@H](C)O)C(C)C [Compound 13, N{alpha-4}-(3-methylbutanoyl)-N{epsilon-7}-[2-(2-{2-[2-(2-{2-[(4S)-4-carboxy-4-(17-carboxyheptadecanamido)butanamido]ethoxy}ethoxy)acetamido]ethoxy}ethoxy)acetamido]-[4A,7K,9E,13A,18Q,19Q,22V,28Y,30W,31L]hPYY (4-36)]",1.29
2,"CC[C@H](C)[C@H](NC(=O)[C@H](CCC(=O)O)NC(=O)[C@H](CCC(=O)O)NC(=O)[C@@H]1CCCN1C(=O)[C@H](CO)NC(=O)[C@H](C)NC(=O)[C@H](CC(=O)O)NC(=O)[C@H](CCC(=O)O)NC(=O)[C@H](CCC(=O)O)NC(=O)[C@@H]1CCCN1C(=O)[C@H](CCCCNC(=O)COCCOCCNC(=O)COCCOCCNC(=O)CC[C@H](NC(=O)CCCCCCCCCCCCCCCCC(=O)O)C(=O)O)NC(=O)[C@H](CCC(=O)O)NC(=O)[C@@H]1CCCN1C(=O)[C@H](C)NC(=O)CC(C)C)C(=O)N[C@@H](CCC(N)=O)C(=O)N[C@@H](CCCNC(=N)N)C(=O)N[C@@H](Cc1ccc(O)cc1)C(=O)N[C@@H](CCC(=O)O)C(=O)N[C@H](C(=O)N[C@@H](CO)C(=O)N[C@@H](CC(C)C)C(=O)N[C@@H](CCCNC(=N)N)C(=O)N[C@@H](Cc1c[nH]cn1)C(=O)N[C@@H](Cc1ccc(O)cc1)C(=O)N[C@@H](Cc1ccc(O)cc1)C(=O)N[C@@H](CC(N)=O)C(=O)N[C@@H](Cc1c[nH]c2ccccc12)C(=O)N[C@@H](CC(C)C)C(=O)N[C@H](C(=O)N[C@@H](CCCNC(=N)N)C(=O)N[C@@H](CCC(N)=O)C(=O)N[C@@H](CCCNC(=N)N)C(=O)N[C@@H](Cc1ccc(O)cc1)C(N)=O)[C@@H](C)O)C(C)C [Compound 15, N{alpha-4}-(3-methylbutanoyl)-N{epsilon-7}-[2-(2-{2-[2-(2-{2-[(4S)-4-carboxy-4-(17-carboxyheptadecanamido)butanamido]ethoxy}ethoxy)acetamido]ethoxy}ethoxy)acetamido]-[4A,7K,9E,17I,18Q,21E,22V,28Y,30W,31L]hPYY (4-36)]",2.89

# Further lines, results first:
row,Ki [nM],SMILES
1,1.28,"CC(C)CC(=O)N[C@@H](C)C(=O)N1CCC[C@H]1C(=O)N[C@@H](CCC(=O)O)C(=O)N[C@@H](CCCCNC(=O)COCCOCCNC(=O)COCCOCCNC(=O)CC[C@H](NC(=O)CCCCCCCCCCCCCCCCC(=O)O)C(=O)O)C(=O)N1CCC[C@H]1C(=O)N[C@@H](CCC(=O)O)C(=O)N[C@@H](C)C(=O)N[C@@H](CC(=O)O)C(=O)N[C@@H](C)C(=O)N[C@@H](CO)C(=O)N1CCC[C@H]1C(=O)N[C@@H](CCC(=O)O)C(=O)N[C@@H](CCC(=O)O)C(=O)N[C@H](C(=O)N[C@@H](CCC(N)=O)C(=O)N[C@@H](CCCNC(=N)N)C(=O)N[C@@H](Cc1ccc(O)cc1)C(=O)N[C@@H](Cc1ccc(O)cc1)C(=O)N[C@H](C(=O)N[C@@H](CO)C(=O)N[C@@H](CC(C)C)C(=O)N[C@@H](CCCNC(=N)N)C(=O)N[C@@H](Cc1c[nH]cn1)C(=O)N[C@@H](Cc1ccc(O)cc1)C(=O)N[C@@H](Cc1ccc(O)cc1)C(=O)N[C@@H](CC(N)=O)C(=O)N[C@@H](Cc1c[nH]c2ccccc12)C(=O)N[C@@H](CC(C)C)C(=O)N[C@H](C(=O)N[C@@H](CCCNC(=N)N)C(=O)N[C@@H](CCC(N)=O)C(=O)N[C@@H](CCCNC(=N)N)C(=O)N[C@@H](Cc1ccc(O)cc1)C(N)=O)[C@@H](C)O)C(C)C)[C@@H](C)O [Compound 10, N{alpha-4}-(3-methylbutanoyl)-N{epsilon-7}-[2-(2-{2-[2-(2-{2-[(4S)-4-carboxy-4-(17-carboxyheptadecanamido)butanamido]ethoxy}ethoxy)acetamido]ethoxy}ethoxy)acetamido]-[4A,7K,9E,10A,17T,18Q,22V,28Y,30W,31L]hPYY (4-36)]"
2,0.93,"CC(C)CC(=O)N[C@@H](C)C(=O)N1CCC[C@H]1C(=O)N[C@@H](CCC(=O)O)C(=O)N[C@@H](CCCCNC(=O)COCCOCCNC(=O)COCCOCCNC(=O)CC[C@H](NC(=O)CCCCCCCCCCCCCCCCC(=O)O)C(=O)O)C(=O)N1CCC[C@H]1C(=O)N[C@@H](CCC(=O)O)C(=O)N[C@@H](CCC(=O)O)C(=O)N[C@@H](CC(=O)O)C(=O)N[C@@H](C)C(=O)N[C@@H](CO)C(=O)N1CCC[C@H]1C(=O)N[C@@H](C)C(=O)N[C@@H](CCC(=O)O)C(=O)N[C@@H](CC(C)C)C(=O)N[C@@H](CCC(N)=O)C(=O)N[C@@H](CCCNC(=N)N)C(=O)N[C@@H](Cc1ccc(O)cc1)C(=O)N[C@@H](Cc1ccc(O)cc1)C(=O)N[C@H](C(=O)N[C@@H](CO)C(=O)N[C@@H](CC(C)C)C(=O)N[C@@H](CCCNC(=N)N)C(=O)N[C@@H](Cc1c[nH]cn1)C(=O)N[C@@H](Cc1ccc(O)cc1)C(=O)N[C@@H](Cc1ccc(O)cc1)C(=O)N[C@@H](CC(N)=O)C(=O)N[C@@H](Cc1c[nH]c2ccccc12)C(=O)N[C@@H](CC(C)C)C(=O)N[C@H](C(=O)N[C@@H](CCCNC(=N)N)C(=O)N[C@@H](CCC(N)=O)C(=O)N[C@@H](CCCNC(=N)N)C(=O)N[C@@H](Cc1ccc(O)cc1)C(N)=O)[C@@H](C)O)C(C)C [Compound 17, N{alpha-4}-(3-methylbutanoyl)-N{epsilon-7}-[2-(2-{2-[2-(2-{2-[(4S)-4-carboxy-4-(17-carboxyheptadecanamido)butanamido]ethoxy}ethoxy)acetamido]ethoxy}ethoxy)acetamido]-[4A,7K,9E,15A,18Q,22V,28Y,30W,31L]hPYY (4-36)]"
3,0.39,"CC(C)CC(=O)N[C@@H](C)C(=O)N1CCC[C@H]1C(=O)N[C@@H](CCC(=O)O)C(=O)N[C@@H](CCCCNC(=O)COCCOCCNC(=O)COCCOCCNC(=O)CC[C@H](NC(=O)CCCCCCCCCCCCCCCCC(=O)O)C(=O)O)C(=O)N1CCC[C@H]1C(=O)N[C@@H](CCC(=O)O)C(=O)N[C@@H](C)C(=O)N[C@@H](CC(=O)O)C(=O)N[C@@H](C)C(=O)N[C@@H](CO)C(=O)N1CCC[C@H]1C(=O)N[C@@H](CCC(=O)O)C(=O)N[C@@H](CCC(=O)O)C(=O)N[C@@H](CC(C)C)C(=O)N[C@@H](CCC(N)=O)C(=O)N[C@@H](CCC(N)=O)C(=O)N[C@@H](Cc1ccc(O)cc1)C(=O)N[C@@H](Cc1ccc(O)cc1)C(=O)N[C@H](C(=O)N[C@@H](CO)C(=O)N[C@@H](CC(C)C)C(=O)N[C@@H](CCCNC(=N)N)C(=O)N[C@@H](Cc1c[nH]cn1)C(=O)N[C@@H](Cc1ccc(O)cc1)C(=O)N[C@@H](Cc1ccc(O)cc1)C(=O)N[C@@H](CC(N)=O)C(=O)N[C@@H](Cc1c[nH]c2ccccc12)C(=O)N[C@@H](CC(C)C)C(=O)N[C@H](C(=O)N[C@@H](CCCNC(=N)N)C(=O)N[C@@H](CCC(N)=O)C(=O)N[C@@H](CCCNC(=N)N)C(=O)N[C@@H](Cc1ccc(O)cc1)C(N)=O)[C@@H](C)O)C(C)C [Compound 19, N{alpha-4}-(3-methylbutanoyl)-N{epsilon-7}-[2-(2-{2-[2-(2-{2-[(4S)-4-carboxy-4-(17-carboxyheptadecanamido)butanamido]ethoxy}ethoxy)acetamido]ethoxy}ethoxy)acetamido]-[4A,7K,9E,10A,18Q,19Q,22V,28Y,30W,31L]hPYY (4-36)] (Isovaleryl-APEK([AEEA-AEEA-γGlu-C18 diacid])PEADASPEELQQYYVSLRHYYNWLTRQRY-NH2)"
